Assay results published in US9896441B2 (Lycera Corporation, priority 2014, dated 2018).

Columns and labels:
RORγ-LBD = molecular target: T1, RORγ-LBD (Homo sapiens, UniProt P51449); test: RORγ-Ligand Binding Domain (LBD) TR-FRET Assay; assay type: biochemical; details: for TR-FRET Assay Max Response: maximum response;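 on TR-FRET Assay Max Response: 665/615 nm signal ratio set to 100 without ursolic acid or test compound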
T1 construct: made in house; host or cells: SF9 cells (baculovirus); used as diluted lysate
T1 sequence (P51449 269-508 limits assumed): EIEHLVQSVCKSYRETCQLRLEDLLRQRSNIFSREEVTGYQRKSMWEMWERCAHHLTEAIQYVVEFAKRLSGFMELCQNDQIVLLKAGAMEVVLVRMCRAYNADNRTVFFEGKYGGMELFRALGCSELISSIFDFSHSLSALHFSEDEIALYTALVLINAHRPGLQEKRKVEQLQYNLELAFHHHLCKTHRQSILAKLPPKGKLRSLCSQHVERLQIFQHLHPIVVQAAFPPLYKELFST
Summary of the method: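 Compounds, diluted in DMSO and then in assay buffer (1% DMSO final), were combined with His-tagged RORγ-LBD lysate at roughly 3 nM final and a 200 nM biotinylated SRC1 LXXLL peptide. Ursolic acid was included at 2 μM final. Coactivator recruitment was detected by TR-FRET.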

Gal4-RORγ-LBD = molecular target: T2, Gal4-RORγ-LBD (Homo sapiens, UniProt P51449); test: Gal4-RORγ Luciferase Reporter Assay in HEK-293T Cells; assay type: cell-based; details: HEK-293 cells; for Gal4-RORγ Assay Max Response: maximum response
T2 construct: expressed in transfected cells
T2 sequence (P51449 269-508 limits assumed): T1 sequence (P51449 269-508 limits assumed)
Summary of the method: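 Max Response was taken as the upper plateau of a 4-parameter logistic fit of luciferase signal, normalized to 100 for wells without ursolic acid or compound. Transiently Gal4-RORγ-LBD/Gal4-luc transfected HEK-293 cells carrying […] ursolic acid were incubated with test compounds (0.2% DMSO) overnight at 37 °C and read with One-Glo.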

[1] = luciferase reporter, with ursolic acid
[2] = luciferase reporter, in presence of ursolic acid

EC50 (RORγ-LBD; RORγ-LBD TR-FRET)	EC50 (Gal4-RORγ-LBD; [1])	EC50 (RORγ-LBD; RORγ-LBD TR-FRET assay)	EC50 (Gal4-RORγ-LBD; [2])	Structure (SMILES)	also measured
5000 to 10000 nM	> 10000 nM	–	–	CCOc1nn(CC)cc1S(=O)(=O)N1C[C@H](CCC(=O)OC)Oc2ccc(/C=C/c3nccnc3Cl)cc21 [Example 89N, (S,E)-methyl 3-(6-(2-(3-chloropyrazin-2-yl)vinyl)-4-((3-ethoxy-1-ethyl-1H-pyrazol-4-yl)sulfonyl)-3,4-dihydro-2H-benzo[b][1,4]oxazin-2-yl)propanoate]	–
> 10000 nM	> 10000 nM	–	–	Cn1ncnc1/C=C/c1ccc2c(c1)N(S(=O)(=O)c1cccc(C(F)(F)F)c1)C[C@H](CCC(=O)O)O2 [Example 89CJ, (S,E)-3-(6-(2-(1-methyl-1H-1,2,4-triazol-5-yl)vinyl)-4-((3-(trifluoromethyl)phenyl)sulfonyl)-3,4-dihydro-2H-benzo[b][1,4]-oxazin-2-yl)propanoic acid]	–
–	–	< 500 nM	> 10000 nM	COC(=O)C(C)(C)C[C@@H]1Cc2ccc(/C=C/c3c(F)cccc3Cl)cc2N(S(=O)(=O)c2ccc(F)c(OC)c2)C1 [Example 153, Methyl (S,E)-3-(7-(2-chloro-6-fluorostyryl)-1-((4-fluoro-3-methoxyphenyl)sulfonyl)-1,2,3,4-tetrahydroquinolin-3-yl)-2,2-dimethylpropanoate]	TR-FRET Assay Max Response (RORγ-LBD; RORγ-LBD TR-FRET assay): *** (a value in the range of greater than 150 to 200); Gal4-RORγ Assay Max Response (Gal4-RORγ-LBD; [2]): * (a value in the range of 30 to 90)
–	–	< 500 nM	500 to 5000 nM	C/C(=C\c1ccc2c(c1)N(S(=O)(=O)c1cccc(C(F)(F)F)c1)C[C@H](CCN1CCCC1)O2)c1c(F)cccc1Cl [Example 118, (S,E)-6-(2-(2-Chloro-6-fluorophenyl)prop-1-en-1-yl)-2-(2-(pyrrolidin-1-yl)ethyl)-4-((3-(trifluoromethyl)phenyl)sulfonyl)-3,4-dihydro-2H-benzo[b][1,4]oxazine]	–
< 500 nM	5000 to 10000 nM	–	–	CC(F)(F)c1cccc(Cl)c1/C=C/c1ccc2c(c1)N(S(=O)(=O)c1cccc(C(F)(F)F)c1)C[C@H](CCC(=O)O)O2 [Example 89EV, (S,E)-3-(6-(2-chloro-6-(1,1-difluoroethyl)styryl)-4-((3-(trifluoromethyl)phenyl)-sulfonyl)-3,4-dihydro-2H-benzo[b][1,4]oxazin-2-yl)propanoic acid]	–
–	–	–	–	CC/C(=C\c1ccc2c(c1)N(S(=O)(=O)c1cccc(C(F)(F)F)c1)C[C@H](CCC(=O)O)O2)C(C)C [Example 191G, (S,E)-3-(6-(2-ethyl-3-methylbut-1-en-1-yl)-4-((3-(trifluoromethyl)-phenyl)sulfonyl)-3,4-dihydro-2H-benzo[b][1,4]oxazin-2-yl)propanoic acid]	EC50 (RORγ-LBD; with 2 μM ursolic acid (RORγ antagonist), highest test concentration 10 μM): < 500 nM; EC50 (Gal4-RORγ-LBD; ursolic acid present, luciferase readout): < 500 nM
< 500 nM	500 to 5000 nM	–	–	Cn1nc(/C=C/c2ccc3c(c2)N(S(=O)(=O)c2cccc(C(F)(F)F)c2)C[C@H](CCC(=O)O)O3)c2c(Cl)cccc21 [Example 89BO, (S,E)-3-(6-(2-(4-chloro-1-methyl-1H-indazol-3-yl)vinyl)-4-((3-(trifluoromethyl)phenyl)sulfonyl)-3,4-dihydro-2H-benzo[b][1,4]-oxazin-2-yl)propanoic acid]	–
< 500 nM	500 to 5000 nM	–	–	Cc1cccnc1/C=C/c1ccc2c(c1)N(S(=O)(=O)c1cccc(C(F)(F)F)c1)C[C@H](CCC(=O)O)O2 [Example 89BJ, (S,E)-3-(6-(2-(3-methylpyridin-2-yl)vinyl)-4-((3-(trifluoromethyl)phenyl)sulfonyl)-3,4-dihydro-2H-benzo[b][1,4]oxazin-2-yl)propanoic acid]	–
< 500 nM	500 to 5000 nM	–	–	C/C(=C\c1ccc2c(c1C)N(S(=O)(=O)c1cccc(OC(F)F)c1)C[C@H](CCC(=O)O)O2)c1c(F)cccc1Cl [Example 60, (S,E)-3-(6-(2-(2-Chloro-6-fluorophenyl)prop-1-en-1-yl)-4-((3-(difluoromethoxy)phenyl)sulfonyl)-5-methyl-3,4-dihydro-2H-benzo[b][1,4]oxazin-2-yl)propanoic acid]	–
–	–	< 500 nM	500 to 5000 nM	C/C(=C\c1ccc2c(c1)N(S(=O)(=O)c1cccc(C(F)(F)F)c1)C[C@H](CCCN1CCC(O)C1)O2)c1c(F)cccc1Cl (stereo partly drawn) [Example 119B, 1-(3-((S)-6-((E)-2-(2-chloro-6-fluorophenyl)prop-1-en-1-yl)-4-((3-(trifluoromethyl)-phenyl)-sulfonyl)-3,4-dihydro-2H-benzo[b][1,4]-oxazin-2-yl)propyl)-pyrrolidin-3-ol]	TR-FRET Assay Max Response (RORγ-LBD; RORγ-LBD TR-FRET assay): *** (a value in the range of greater than 150 to 200); Gal4-RORγ Assay Max Response (Gal4-RORγ-LBD; [2]): ** (a value in the range of greater than 90 to 150)
